Laboratory results: publication PMC10999085, “Synthesis, anticancer evaluation, molecular docking and ADME study of novel pyrido[4ʹ,3ʹ:3,4]pyrazolo[1,5-a]pyrimidines as potential tropomyosin receptor kinase A (TrKA) inhibitors” (BMC Chemistry, 2024)
≈ marks a conversion by molar mass, not a printed value. Entries after “also recorded” stand apart in the source; their conditions may differ.

How the values were obtained:
[1] = system: MCF7 cell line; test: MTT assay, MCF7 cell line; format: cell-based, human; settings: 24 hr treatment, in % (unit assumed); for Cytotoxicity at 5 µg/l: MCF7, 5 µg/l; for Cytotoxicity at 10 µg/l: MCF7, 10 µg/l; for Cytotoxicity at 20 µg/l: MCF7, 20 µg/l
Experimental: (§1) Determination of the inhibitory effects of compounds on cell growth was performed through the MTT assay. This colorimetric assay is based on the conversion of the yellow tetrazolium bromide (MTT) to a purple formazan derivative by mitochondrial succinate dehydrogenase in viable cells. The protocol was discussed in details in Additional file 1.
(§2) Compounds 1, 4a,b, 7a–c, 7k, l, 9a–c, 14a, 15b, 16a–c were selected to be investigated against three human cancer cell lines MCF7, HepG2 and HCT116 cell lines using MTT assay using doxorubicin as the standard drug. Each point is the mean ± SD (standard deviation) of three independent experiments performed in triplicate, using the prism software program (integrated Graphpad software, version 3).
(§3) Cell lines were used to measure the cell growth effects of the compounds using the MTT assay. This colorimetric assay is depend on the conversion of the yellow tetrazolium bromide (MTT) to a purple formazan derivative by mitochondrial succinate dehydrogenase in living cells. Cell lines were cultured in RPMI-1640 medium supplemented with 10% fetal bovine serum. The antibiotics added were 100 units/ml penicillin and 100 µg/ml streptomycin at 37 °C in a 5% CO2 incubator. Cell lines were seeded in a 96-well plates at a density of 1.0x10^4 cells/well and cultured at 37 °C for 48 h under 5% CO2. After incubation, the cells were treated with different concentrations of compounds and incubated for 24 hr. After 24 hr of drug treatment, 20 µl of MTT solution at 5 mg/ml was added to each well and incubated for 4 hr. 100 µl of dimethyl sulfoxide (DMSO) was added into each well to dissolve the purple formazan formed. The colorimetric assay was measured and recorded at absorbance of 570 nm using a plate reader (EXL 800, USA). Relative cell viability (%) was calculated as (A570 of treated sample/A570 of untreated sample) x 100 [36, 37].

[2] = system: HepG2 cell line; test: MTT assay, HepG2 cell line; format: cell-based, human; settings: for Cytotoxicity at 5 µg/l: HepG2, 5 µg/l; for Cytotoxicity at 5 µg/l / Cytotoxicity at 10 µg/l / Cytotoxicity at 20 µg/l: MTT, 24 hr treatment, in % (unit assumed); for Cytotoxicity at 10 µg/l: HepG2, 10 µg/l; for Cytotoxicity at 20 µg/l: HepG2, 20 µg/l
Experimental: as §1, §2, §3

[3] = system: HCT-116 cell line; test: MTT assay, HCT-116 cell line; format: cell-based, human; settings: MTT, 24 hr treatment, in % (unit assumed); for Cytotoxicity at 5 µg/l: HCT116, 5 µg/l; for Cytotoxicity at 10 µg/l: HCT116, 10 µg/l; for Cytotoxicity at 20 µg/l: HCT116, 20 µg/l
Experimental: as §1, §2, §3

[4] = biological target: T1, Tropomyosin receptor kinase A (TrKA) (Homo sapiens, UniProt P04629); test: Tropomyosin receptor kinase A (TrKA) inhibitory assay (Kinase-Glo MAX kit); format: biochemical; settings: in vitro kinase assay, recombinant TrkA
T1 construct: purchased
T1 sequence (P04629 33-796): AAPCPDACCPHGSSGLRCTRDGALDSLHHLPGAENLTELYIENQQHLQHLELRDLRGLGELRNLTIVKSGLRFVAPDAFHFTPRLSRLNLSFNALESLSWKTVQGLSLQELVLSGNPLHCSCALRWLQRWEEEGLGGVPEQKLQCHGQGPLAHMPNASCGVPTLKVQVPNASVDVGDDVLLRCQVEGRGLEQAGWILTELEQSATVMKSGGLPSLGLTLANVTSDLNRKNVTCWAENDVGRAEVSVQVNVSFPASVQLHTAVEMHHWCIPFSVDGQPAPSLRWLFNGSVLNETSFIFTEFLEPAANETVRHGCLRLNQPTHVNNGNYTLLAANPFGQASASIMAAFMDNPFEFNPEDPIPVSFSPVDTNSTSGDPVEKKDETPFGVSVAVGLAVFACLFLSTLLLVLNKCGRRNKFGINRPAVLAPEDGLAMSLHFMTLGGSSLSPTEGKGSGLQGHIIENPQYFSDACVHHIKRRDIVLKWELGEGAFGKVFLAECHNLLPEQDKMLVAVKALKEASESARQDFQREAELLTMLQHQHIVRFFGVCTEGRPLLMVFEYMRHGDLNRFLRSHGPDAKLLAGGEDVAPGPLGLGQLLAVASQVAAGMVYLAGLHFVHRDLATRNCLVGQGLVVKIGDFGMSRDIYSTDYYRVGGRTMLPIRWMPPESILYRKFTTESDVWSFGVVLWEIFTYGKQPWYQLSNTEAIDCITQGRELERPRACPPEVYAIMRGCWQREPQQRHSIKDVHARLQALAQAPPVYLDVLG
Source text: (§4) The TrkA assay Kit is designed to measure TrkA activity for screening and profiling applications using Kinase-Glo® MAX as a detection reagent. The TrkA Assay Kit comes in a convenient 96-well format, with enough purified recombinant TrkA enzyme, TrkA substrate, ATP and kinase assay buffer for 100 enzyme reactions. The method was discussed in details in the ESI.
as §4, with “reactions.” for “reactions. The method was discussed in details in the ESI.”
The assay protocol: all samples and controls should be tested in duplicate. Dissolve 5x Kinase Assay Buffer 1, ATP, and PTK Substrate Poly (Glu:Tyr 4:1) (10 mg/ml). 2). The master mixture (25 μl per well) was prepared by N wells x (6 μl 5x Kinase Assay Buffer 1 + 1 μl ATP (500 μM) + 1 μl PTK Substrate Poly (Glu:Tyr 4:1) (10mg/ml) + 17 μl water). Add 5 μl of Inhibitor solution of each well labeled as “Test Inhibitor”. For the “Positive Control" and “Blank”, add 5 μl of the same solution without inhibitor (Inhibitor buffer). Prepare 3 ml of 1x Kinase assay buffer 1 by mixing 600 μl of 5x Kinase assay buffer 1 with 2400 μl water 3 ml of 1x Kinase assay buffer is sufficient for 100 reactions. To the wells designated as "Blank", add 20 μl of 1x Kinase assay buffer 1and thaw TrkA enzyme on ice. Upon first thaw, briefly spin tube containing enzyme to recover full content of the tube. Calculate the amount of TrkA required for the assay and dilute enzyme to 5 ng/μl with 1x Kinase assay buffer. Store remaining undiluted enzyme in aliquots at -80°C. Then initiate reaction by adding 20 μl of diluted TrkA enzyme to the wells designated “Positive Control” and "Test Inhibitor Control". Incubate at 30°C for 45minutes and thaw Kinase-Glo Max reagent. After the 45 minute reaction, add 50 μl of Kinase-Glo Max reagent to each well. Cover plate with aluminum foil and incubate the plate at room temperature for 15 minutes. Immediately read sample in a luminometer or microtiter-plate capable of reading chemiluminescence. “Blank” value is subtracted from all readings.

[5] = system: HepG2 cells; test: In-vitro cell cycle analysis (PI flow cytometry); format: cell-based, human
Experimental: HepG-2 cells are pre-cultured in 25 cm^2 cell culture flask. RPMI-1640 medium was used. Tested compounds 7b, 9c, 15b, 16a and 16c were used in the cell treatment at their IC50 by dissolving them in the required medium separately. The procedure was discussed in details in the ESI.
For cell cycle analysis, stained DNA from HepG2 cancer cells was treated with compounds 7b, 15b, 16a and 16c that induce cancer cell death by inhibiting TrKA. From the results in Table 5, it can be seen that the proportion of cells at phase in the pre-G1 of compounds 7b, 15b, 16a and 16c increased the proportion of cells at phase in the G2/M by about 4, 4, 2.5 and 3 folds, respectively.
HepG-2 cells were pre-cultured in 25 cm^2 cell culture flasks; RPMI-1640 medium was used. Tested compounds 7b, 15b, 16a and 16c were dissolved separately in the required medium and used in the cell treatment at their IC50. After overnight treatment the cells were collected and fixed gently with 70% (v/v) ethanol in PBS, incubated overnight at 4 °C, and resuspended in PBS containing 40 µg/ml propidium iodide (PI), 0.1 mg/ml RNase and 0.1% (v/v) Triton X-100 in the dark room at after 30 min at 37 °C, the cell cycle analysis was performed using a flow cytometer, equipped with an argon ion laser at a wavelength of 488 nm (Becton-Dickinson, San Josa, CA, USA) and the percentage of cells at G1, S and G2/M was also calculated.

[6] = system: HepG2 cells; test: Annexin V-FITC apoptosis assay; format: cell-based, human
Experimental: HepG-2 cells were harvested and incubated with compounds 7b, 15b, 16a and 16c separately for 48 h. Then, the cells were collected and washed with PBS two successive times followed by centrifugation. After that, the cells were treated with Annexin V-FITC and propidium iodide (PI) using the apoptosis detection kit (BD Biosciences and Annexin V-FITC and PI binding were analyzed by a flow cytometer.
Early and late apoptosis was determined after treatment of HepG2 cells with compounds 7b, 15b, 16a and 16c compared with untreated control cells. The late apoptosis rate increased by about 13, 20, 4 and 3 times, respectively, showing a higher efficiency than the early apoptosis ratio 5, 2, 8 and 6 times, respectively.
As mentioned above, HepG-2 cells were collected and incubated separately with compounds 7b, 15b, 16a and 16c for 48 hr. Cells were then collected and washed twice consecutively with PBS and centrifuged. After that, the cells were treated with Annexin V-FITC and propidium iodide (PI) using an apoptosis detection kit (BD Biosciences, San Jose, CA) according to the manufacturer's instructions. The biding of Annexin V-FITC and PI was analyzed by ﬂow cytometer.

[7] = system: Trk family; set-up: method as in earlier work; settings: cited from earlier work
[8] = HepG2, compared with untreated control cells

| Compound | Cytotoxicity at 5 µg/l [1] | Cytotoxicity at 10 µg/l [1] | Cytotoxicity at 20 µg/l [1] | Cytotoxicity at 5 µg/l [2] | Cytotoxicity at 10 µg/l [2] | Cytotoxicity at 20 µg/l [2] | Cytotoxicity at 5 µg/l [3] | Cytotoxicity at 10 µg/l [3] | Cytotoxicity at 20 µg/l [3] | IC50 [4] | also measured |
| --- | --- | --- | --- | --- | --- | --- | --- | --- | --- | --- | --- |
| COc1ccc(N/N=C2\C(=O)NC(=O)c3c2nn2c(C)cc(C)nc32)cc1 [Compound 9c, 7-(2-(4-Methoxyphenyl)hydrazono)-2,4-dimethylpyrido[4ʹ,3ʹ:3,4]pyrazolo[1,5-a]pyri-midine-8,10(7H,9H)-dione] | 38.17 | 53.72 | 87.32 | 42.88 | 50.63 | 86.55 | 59.74 | 67.13 | 89.80 | 434 nM | melting point: 305 °C |
| COc1ccc(C=C2C(=O)NC(=O)c3c2nn2c(O)cc(C)nc32)cc1 [Compound 15b, 4-Hydroxy-7-(4-methoxybenzylidene)-2-methylpyrido[4ʹ,3ʹ:3,4]pyrazolo[1,5-a]pyrimidine-8,10(7H,9H)-dione] | 28.52 | 62.92 | 83.62 | 49.48 | 75.98 | 78.66 | 26.10 | 66.87 | 84.20 | 288 nM | IC50 ([2]; Homo sapiens, HepG2, MTT, read-out: IC50 (drug concentration that inhibited 50% of cell proliferation)): 4.64 ng/mL (≈ 0.0132 µM); Cell cycle comment (phase of arrest) ([5]; HepG2): arrested in the cell cycle at G2/M phase; also recorded: arrest in cell cycle at the G2/M phase; also recorded: cell growth arrest@G2/M; DNA content %G0-G1 ([5]; HepG2, compound at its IC50): 33.57%; DNA content %G2/M ([5]; HepG2, compound at its IC50): 36.72%; DNA content %Pre-G1 ([5]; HepG2, compound at its IC50): 32.51%; DNA content %S ([5]; HepG2, compound at its IC50): 29.71%; increase of the proportion of cells in the G2/M phase ([5]; HepG2, versus control): about 4 folds; Apoptosis Early ([6]; HepG2, 48 h, Annexin V-FITC/PI): 2.93%; Apoptosis Late ([6]; HepG2, 48 h, Annexin V-FITC/PI): 20.12%; Necrosis ([6]; HepG2, 48 h, Annexin V-FITC/PI): 9.46%; apoptosis-inducing effect ([6]; HepG2, as stated in the abstract): 36.72%; increase of early apoptosis ratio [6, 8]: 2 times; increase of late apoptosis rate [6, 8]: ~20 times |
| O=C(Nc1cnn2ccc(N3CCC[C@@H]3c3cc(F)ccc3F)nc12)N1CC[C@H](O)C1 [Larotrectinib] | – | – | – | – | – | – | – | – | – | – | IC50 [7]: 2 to 20 nM |
